Results on four compounds are retold here after US5641804A, “Fungicidal compound comprising a cyclic polylactone” (Novo Nordisk A/S, priority 1992, dated 1997).

For assay [1], the system named is Ascochyta pisi. The assay is described as follows: Agar well inhibition zone, Ascochyta pisi (Ap). The class given is cell-based. Also on record: key to inhibition zone Ap: clear; diffuse; very diffuse; +: very weak. Particulars: 15 μl per well, 3 days at 25° C.; for zone of inhibition at 1000 µg/mL: 1.0 mg/ml. On the procedure: Ascochyta pisi (Ap) leaf, stem and pod rot
(§1) Each of the above mentioned 9 pathogens were separately innoculated into 100 ml of potato dextrose (PD) bouillon and shaken at 200 rpm at 25° C. for 7 days. The mycelium was harvested and homogenized for about 10 seconds in a Warring blender and 1-5 ml of the blended mycelium was transferred to petri dishes with a diameter of 14 cm. […] 20 ml of potato dextrose agar (PDA) having a temperature of 45° C. were poured into each of the petri dishes and thorougly mixed with the blended mycelium present therein. When the agar had solidified, wells of a diameter of 4 mm were punched in the agar, and 15 μl of test solutions containing varicus concentrations of compound Ia, Ib and IIa dissolved in ethanol was applied to each well. The plates were incubated for three days at 25° C. and the inhibition zones measured (in mm). […]

For assay [2], the system named is mouse peritoneal macrophage. In words: Mouse peritoneal macrophage assay, cellular ATP (viability). Format: cell-based.
In assay [3] the test system is Alternaria alternata. In words: Agar well inhibition zone, Alternaria alternata (Aa). The class given is cell-based. The conditions noted are these: 15 μl per well, 3 days at 25° C.; for zone of inhibition at 500 µg/mL: 0.5 mg/ml; for zone of inhibition at 1000 µg/mL: 1.0 mg/ml. On the procedure:
Alternaria alternata (Aa) black mould coverings, leaf spot
(§2) Each of the above mentioned 9 pathogens were separately innoculated into 100 ml of potato dextrose (PD) bouillon and shaken at 200 rpm at 25° C. for 7 days. The mycelium was harvested and homogenized for about 10 seconds in a Warring blender and 1-5 ml of the blended mycelium was transferred to petri dishes with a diameter of 14 cm. […] 20 ml of potato dextrose agar (PDA) having a temperature of 45° C. were poured into each of the petri dishes and thorougly mixed with the blended mycelium present therein. When the agar had solidified, wells of a diameter of 4 mm were punched in the agar, and 15 μl of test solutions containing varicus concentrations of compound Ia, Ib and IIa dissolved in ethanol was applied to each well. The plates were incubated for three days at 25° C. and the inhibition zones measured (in mm).
(§3) The experiments were repeated and in the second run, Bc plates were made from Bc spores (the plates were termed Bc2) as such plates may result in a more uniform growth.

Assay [4] relates to Botrytis cinerea. The assay is described as follows: Agar well inhibition zone, Botrytis cinerea, mycelium plates (Bc1). The class given is cell-based. Set-up: key to inhibition zone Bc1: clear; diffuse; very diffuse; +: very weak. The conditions noted are these: 15 μl per well, 3 days at 25° C. On the procedure: (§4) Botrytis cinerea (Bc) grey mould
as §1

Assay [5] relates to plant pathogenic fungi. In words: In vitro fungicidal activity spectrum over the pathogens tested. The class given is cell-based. The method, then: The following pathogens were used:
as §2, §3

For assay [6], the system named is Phoma betae. In words: Agar well inhibition zone, Phoma betae (Pb). The class given is cell-based. Particulars: 15 μl per well, 3 days at 25° C.; for zone of inhibition at 500 µg/mL: 0.5 mg/ml. The method, then: Phoma betae (Pb) seedling black rot, black leg
as §1

In assay [7] the test system is Monilinia fructigena. The assay is described as follows: Agar well inhibition zone, Monilinia fructigena (Mf). The class given is cell-based. Particulars: 15 μl per well, 3 days at 25° C.; for zone of inhibition at 500 µg/mL: 0.5 mg/ml; for zone of inhibition at 1000 µg/mL: 1.0 mg/ml. The method, then:
Monilinia fructigena (Mf) brown rot, fruit rot
as §1

In assay [8] the test system is Botrytis cinerea. In words: Agar well inhibition zone, Botrytis cinerea, plates made from spores (Bc2). The conditions noted are these: for appearance of Bc zones / time of incubation after which Bc zones could be seen: Bc plates; for zone of inhibition at 500 µg/mL: 0.5 mg/ml; for zone of inhibition at 1000 µg/mL: 1.0 mg/ml. Format: cell-based. The method, then:
as §4, §2, §3

In assay [9] the test system is Sclerotinia sclerotiorum. The assay is described as follows: Agar well inhibition zone, Sclerotinia sclerotiorum (Ss). Set-up: key to inhibition zone Ss: clear; diffuse; very diffuse; +: very weak. The conditions noted are these: 15 μl per well, 3 days at 25° C. Format: cell-based. On the procedure: Sclerotinia sclerotiorum (Ss) white mould disease, stem rot
as §1

The subject of assay [10] is mouse peritoneal macrophage. The assay is described as follows: Mouse peritoneal macrophage assay, chemiluminescence (phagocytosis). The class given is cell-based.
In assay [11] the test system is Pyrenophora teres. The assay is described as follows: Agar well inhibition zone, Pyrenophora teres (Pt). Format: cell-based. Set-up: key to inhibition zone Pt: clear; diffuse; very diffuse; +: very weak. Particulars: 15 μl per well, 3 days at 25° C.; for zone of inhibition at 500 µg/mL / zone of inhibition at 1000 µg/mL / zone of inhibition at 100 µg/mL: Pyrenophora teres, 72 h; for zone of inhibition at 500 µg/mL: 0.5 mg/ml; for zone of inhibition at 1000 µg/mL: 1.0 mg/ml. The method, then:
Pyrenophora teres (Pt) net blotch disease
as §1

Assay [12] has as its system Phoma lingam. In words: Agar well inhibition zone, Phoma lingam (Pl). The class given is cell-based. Set-up: key to inhibition zone P1: clear; diffuse; very diffuse; +: very weak. The conditions noted are these: 15 μl per well, 3 days at 25° C.; for zone of inhibition at 1000 µg/mL: 1.0 mg/ml. The method, then:
Phoma lingam (Pl) canker and dry rot
as §1

The test system of assay [13] is Botrytis cinerea. The assay is described as follows: Fungicidal activity in vivo against Botrytis cinerea on sprayed plants. Particulars: spray to run off, assessed after 6 days. The method, then:
Activity of the compounds Ia and Ib against Botrytis cinerea Host: Lycopersicon esculentum (tomato, var. First in Field) […] plants (5 weeks old) were sprayed to run off with liquid solutions using a handhold sprayer (Bink Bullows 900). The solution (70% EtOH) had different concentrations of the compounds Ia and Ib. The plants were kept 24 hours in a green house to dry before they were inoculated with a spore suspension containing 1×10^5 spores/ml in 25% grape juice. The inoculation was carried out with a handhold atomizer (Wagner, Pico Bel). The plants were then incubated (16 hours light (1000 lux) and 8 hours dark) at 15°-20° C. in clear polyethylene bags to raise the relative humidity to 95-100%. After 6 days the assessment was done.

Assay [14] has as its system nerve growth factor. The conditions noted are these: cited from earlier work.
Where [15] appears, read: Ascochyta pisi, 72 h, 0.1 mg/ml.
[16] abbreviates: Neocamarosporium betae, 72 h, 0.1 mg/ml.
Where [17] appears, read: 0.1 mg/ml, 15 μl per well, 3 days at 25° C., plates from spores.
Where [18] appears, read: Botrytis cinerea, 72 h, 15 μl per well, 3 days at 25° C., plates from spores.
Where [19] appears, read: Plenodomus lingam, 72 h, read-out: inhibition zone P1.
Where [20] appears, read: Botrytis cinerea, 72 h, 0.1 mg/ml.

Converted amounts (≈) assume the structure as drawn.

One may read the IC50 as the midpoint of a concentration-inhibition curve. Consider `C[C@@H]1Cc2cc(O)cc(O)c2C(=O)O[C@H](C)CC(=O)OC[C@@H](O)CC(=O)O[C@H](C)Cc2cc(O)cc(O)c2C(=O)O[C@H](C)CC(=O)O1` [Compound IIa], for which the zone of inhibition at 100 µg/mL in assay [1] (setting [15]) and in assay [6] (setting [16]) was 0 mm in each case. Besides, the zone of inhibition at 500 µg/mL in assay [1] (Ascochyta pisi, 72 h, 0.5 mg/ml) is 0 mm; in assay [3] (Alternaria alternata, 72 h) it was 0 mm; in assay [6] (Neocamarosporium betae, 72 h), 0 mm; in assay [7] (Monilinia fructigena, 72 h), 40 mm; in assay [8] (setting [18]) it was 37 mm; in assay [11], 0 mm. The zone of inhibition at 500 µg/mL in assay [12] (Plenodomus lingam, 72 h, 0.5 mg/ml, read-out: inhibition zone P1) worked out at 14 mm. Besides, the zone of inhibition at 1000 µg/mL in assay [1] (Ascochyta pisi, 72 h) amounted to 0 mm; in assay [3] (Alternaria alternata, 72 h), 0 mm; in [7] (Monilinia fructigena, 72 h) it was 40 mm; in assay [8] (setting [18]), 45 mm; in assay [11] it was 0 mm; in [12] (setting [19]), 18 mm. The IC50 in assay [2] and in assay [10] was under 10 µg/mL throughout. Further, the “inhibition zone Bc1” value in assay [4] (0.1 mg/ml), in assay [4] (0.5 mg/ml) and in [4] (1.0 mg/ml) was “+” each time. The “number of pathogens against which compound was active” value in [5] (with respect to Bc only for the plate containing spores) was 5 pathogens. Besides, the “inhibition zone Mf” value in assay [7] (0.1 mg/ml) is 40v. For the same compound, the “inhibition zone Bc2” value in [8] (setting [17]) was determined as 30d mm. Also, the “appearance of Bc zones” value in assay [8] is “very diffuse”. The “time of incubation after which Bc zones could be seen” value in assay [8] is reported as at least 3 days. The entries for the “inhibition zone Ss” value in assay [9] (0.1 mg/ml), in [9] (0.5 mg/ml) and in [9] (1.0 mg/ml) were 40d mm, “+” and “+”, respectively. For the same compound, in assay [11] (0.1 mg/ml), the “inhibition zone Pt” value is “+”. Moreover, the “inhibition zone P1” value in [12] (0.1 mg/ml) was 31d mm.

Regarding `C[C@@H]1CC(=O)O[C@H](C)Cc2cc(O)cc(O)c2C(=O)O[C@H](C)CC(=O)O[C@H](C)Cc2cc(O)cc(O)c2C(=O)O[C@H](C)CC(=O)O1` [Compound Ib], the “inhibition zone Ap” value in assay [1] (0.5 mg/ml) is “+”. The zone of inhibition at 100 µg/mL in assay [1] (setting [15]) came out at 0 mm; in assay [3] (Alternaria alternata, 72 h, 0.1 mg/ml) it was 0 mm; in assay [4] (setting [20]), 0 mm; in [6] (setting [16]), 0 mm; in assay [7] (Monilinia fructigena, 72 h, 0.1 mg/ml), 0 mm; in assay [8] (Botrytis cinerea, 72 h, 0.1 mg/ml, 15 μl per well, 3 days at 25° C., plates from spores) it was 0 mm. Further, the zone of inhibition at 100 µg/mL in [9] (Sclerotinia sclerotiorum, 72 h, 0.1 mg/ml) amounted to 0 mm; in assay [11] (0.1 mg/ml), 0 mm; in [12] (Plenodomus lingam, 72 h, 0.1 mg/ml, read-out: inhibition zone P1) it was 0 mm. The zone of inhibition at 1000 µg/mL in [1] (Ascochyta pisi, 72 h) amounted to 15 mm; in [3] (Alternaria alternata, 72 h), 17 mm; in assay [4] (Botrytis cinerea, 72 h, 1.0 mg/ml), 0 mm; in assay [6] (Neocamarosporium betae, 72 h, 1.0 mg/ml), 20 mm; in assay [7] (Monilinia fructigena, 72 h), 25 mm; in [8] (setting [18]), 30 mm. Also, the zone of inhibition at 1000 µg/mL is 0 mm in assay [9] (Sclerotinia sclerotiorum, 72 h, 1.0 mg/ml); 33 mm in assay [11]; 12 mm in assay [12] (setting [19]). Besides, the protection result in assay [13] (36 ppm) and in assay [13] (360 ppm) was “approx. 50%” each time. The IC50 in assay [2] and in assay [10] was 6 µg/mL (≈ 9.28 µM) each time. The zone of inhibition at 500 µg/mL was 15 mm in assay [3] (Alternaria alternata, 72 h); 0 mm in assay [4] (Botrytis cinerea, 72 h, 0.5 mg/ml); 17 mm in [6] (Neocamarosporium betae, 72 h); 0 mm in [7] (Monilinia fructigena, 72 h); 26 mm in assay [8] (setting [18]); 0 mm in assay [9] (Sclerotinia sclerotiorum, 72 h, 0.5 mg/ml). This compound also showed a zone of inhibition at 500 µg/mL in assay [11] of 17 mm. In addition, the activity spectrum entry in assay [5] (all pathogens tested, Table 2) is “active, to a higher or lower degree, towards all of the pathogens tested”. The “appearance of Bc zones” value in assay [8] is “very clear”. Further, the “time of incubation after which Bc zones could be seen” value in assay [8] is at most 2 days. Further, the “inhibition zone P1” value in assay [12] (0.5 mg/ml) is given as “+”.

With `C[C@@H]1Cc2cc(O)cc(O)c2C(=O)O[C@H](C)CC(=O)OC[C@@H](O)CC(=O)O[C@H](C)Cc2cc(O)cc(O)c2C(=O)O[C@H](C)CC(=O)O1` [IIIa], in assay [1] (0.1 mg/ml), the “inhibition zone Ap” value amounted to 0 mm. The “inhibition zone Aa” value in assay [3] (0.1 mg/ml) is 0 mm. Further, the zone of inhibition at 100 µg/mL in assay [4] (setting [20]) and in assay [11] (0.1 mg/ml) was 0 mm throughout. In [6] (0.1 mg/ml), the “inhibition zone Pb” value is 0 mm. In addition, in assay [7] (0.1 mg/ml), the “inhibition zone Mf” value is recorded as 0 mm. Besides, the “inhibition zone Bc2” value in assay [8] (setting [17]) came to 0 mm. In assay [9] (0.1 mg/ml), the “inhibition zone Ss” value came to 0 mm. The “inhibition zone P1” value in assay [12] (0.1 mg/ml) came out at 0 mm.

Turning to `CC1Cc2cc(O)cc(O)c2C(=O)OC(C)CC(=O)OC(C)Cc2cc(O)cc(O)c2C(=O)OC(C)CC(=O)OC(CO)CC(=O)O1` (centres unmarked) [NG-012], the “nerve growth factor potentiation” value in [14] is “nerve growth factor potentiator”.
